This assay deals with S. cerevisiae eIF2B mutant, luciferase reporter luminescence. Kind of assay: potency on yeast eIF2B luminescence signal – S. cerevisiae, mutant, wild-type, growth, dose response (AID 792).
[1] abbreviates: S. cerevisiae wild-type, luminescence.
Setting [2] is: measured here: mutant yeast growth.

Structures are written as SMILES. Records with an inconclusive call do not appear. Calls of active or inactive are those of the source. No rule for the calls is given here.

For the compound `CC(C)Cc1nnc(NC(=O)CC(=O)Nc2ccccc2C(=O)O)s1`, the IC50 result was “inactive”. The same compound displayed an IC50 under setting [1] of 65.4 µM. Besides, under setting [2], the IC50 was above 100 µM.
As for `Cc1ccc(S(=O)(=O)n2nc(OC(=O)c3ccco3)cc2N)cc1`, the IC50 was > 100 µM (inactive). In addition, the IC50 under setting [2] is above 100 µM.
The corresponding values for `COc1cc(C)nc(N2CCCC(C(=O)Nc3cccc(Cl)c3C)C2)n1` (centres undefined) are > 100 µM (inactive) and above 100 µM.
For the compound `O=C(CSc1nccc(=O)[nH]1)N1CCCc2ccccc21`, the IC50 is > 100 µM (inactive). The compound also displayed an IC50 under setting [2] above 100 µM.
As to `COCCN1CN(S(=O)(=O)c2ccc(Cl)cc2)c2nc3ccccc3nc21`, the IC50 was > 100 µM (inactive). Under setting [2], this compound yielded an IC50 above 100 µM.
As for `Cn1ncc(C#N)c1/N=C/N1CCOCC1`, the IC50 is > 100 µM (inactive). The compound further gave a 50% inhibitory concentration (IC50) under setting [2] above 100 µM.
In the case of `CCOC(=O)N1CCN(C(=O)c2ccc(N3CCCC3=O)cc2)CC1`, the IC50 is > 100 µM (inactive). Under setting [2], this compound showed an IC50 above 100 µM.
Take `Cc1ncc(CC(=O)n2cc(C(=O)c3cc(F)ccc3O)cn2)s1`: the IC50 was > 100 µM (inactive). For the same compound, the IC50 under setting [2] is above 100 µM.
Turning to `Cc1ccc2c(c1)N(CC(=O)NC1CCC(C)CC1)C(=O)CO2` (centres undefined), the IC50 was > 100 µM (inactive). This compound showed an IC50 under setting [2] above 100 µM.
Take `CCOC(=O)COc1ccc(S(=O)(=O)NCc2ccco2)cc1`: the IC50 was > 100 µM (inactive). For the same compound, the IC50 under setting [2] is above 100 µM.
Regarding `CCCCCOC(=O)Nc1nnc(CCC)s1`, the IC50 was > 100 µM (inactive). This compound also showed an IC50 under setting [2] above 100 µM.
As for `CC(=O)/C(C(=N)N1CCN(c2cccc(Cl)c2)CC1)=C(\C)O`, the IC50 was > 100 µM (inactive). Besides, under setting [2], the IC50 is above 100 µM.
With `O=C(CCN1CCN(C(=O)c2ccco2)CC1)Nc1ccc(F)cc1`, the IC50 is > 100 µM (inactive). Besides, the IC50 under setting [2] was above 100 µM.
On to `CSC1=NCCN1C(=O)c1cccc(C(F)(F)F)c1`, for which the IC50 is > 100 µM (inactive). The compound further returned an IC50 under setting [2] above 100 µM.
As to `CCOC(=O)N1CCN(C(=O)c2nn(-c3cc(OC)cc(OC)c3)c(=O)c3ccccc23)CC1`, the IC50 is > 100 µM (inactive). The same compound had an IC50 under setting [2] above 100 µM.
On to `CCC(CC)c1nnc(NC(=O)c2cccc(S(=O)(=O)N3CCc4ccccc43)c2)s1`, for which the IC50 is > 100 µM (inactive). In addition, the IC50 under setting [2] was above 100 µM.
For `Oc1cc(Cc2ccccc2)cnc1CN1CCCCC1`, in that order: > 100 µM (inactive) and above 100 µM.
The corresponding values for `CCOC(=O)c1oc2cc(O)ccc2c(=O)c1-c1csc(C)n1` are > 100 µM (inactive) and above 100 µM.
For the compound `COc1cccc(-n2ccnc2SCC(=O)Nc2cc(OC)ccc2OC)c1`, the IC50 was > 100 µM (inactive). The IC50 under setting [2] was above 100 µM.
For `COC(=O)C(NC(=O)c1ccco1)(Nc1nc(C)cs1)C(F)(F)F` (centres undefined), in that order: > 100 µM (inactive) and above 100 µM.
In the case of `CCOC(=O)CSc1nncc2ccc(OC)c(OC)c12`, the IC50 is > 100 µM (inactive). Under setting [2], this compound registered an IC50 above 100 µM.
For `CCOC(=O)c1sc(N)c(C#N)c1CSc1nc2ccc(C)cc2[nH]1`, in that order: > 100 µM (inactive) and above 100 µM.
Consider `COC(=O)CSc1nnc2n(-c3ccc(OC)cc3)c(=O)c3c4c(sc3n12)CCCCC4`, for which the IC50 is > 100 µM (inactive). In addition, under setting [2], the IC50 is 87.1 µM.
In the case of `Cc1cccc2nc(CSc3nnc4ccccn34)cn12`, the IC50 is > 100 µM (inactive). Besides, the IC50 under setting [2] was above 100 µM.
For `CCOC(=O)N1CCN(C(=O)COc2cc(=O)n(CC)c3ccccc23)CC1`, the IC50 is > 100 µM (inactive). Further, under setting [2], the IC50 is above 100 µM.
For the compound `CCOCCCNC(=O)c1c[nH]c2ccc(C)cc2c1=O`, the IC50 was > 100 µM (inactive). Under setting [2], this compound showed an IC50 above 100 µM.
Consider `CCn1cc(C(=O)NCC2CCCO2)c(=O)c2cc(S(=O)(=O)N3CCCCC3)ccc21` (centres undefined), for which the IC50 was > 100 µM (inactive). Under setting [2], this compound returned an IC50 above 100 µM.
For `O=C(CC(C(=O)N1CCc2ccccc21)n1ccnc1)NCC1CCCO1` (centres undefined), the IC50 was > 100 µM (inactive). Under setting [2], this compound gave an IC50 above 100 µM.
In the case of `CCn1c(C)c(/C=N/Nc2nc3ccccc3s2)c2ccccc21`, the IC50 is > 100 µM (inactive). Besides, the 50% inhibitory concentration (IC50) under setting [2] was above 100 µM.
Consider `Cc1cccc(N2C(=O)c3cccnc3C2=O)c1`, for which the IC50 was > 100 µM (inactive). The compound further returned an IC50 under setting [2] above 100 µM.
As for `COc1ccccc1-n1nc(C(=O)Nc2ccc3c(c2)OCO3)c2ccccc2c1=O`, the IC50 was > 100 µM (inactive). For the same compound, the IC50 under setting [2] was above 100 µM.
On to `CC1Cc2ccccc2N1C(=O)Cn1c(=O)cc(O)c2ccccc21` (centres undefined), for which the IC50 is > 100 µM (inactive). The compound also returned an IC50 under setting [2] above 100 µM.
Consider `CC(=O)c1ccc(NC(=O)c2noc3c2CCCCC3)cc1`, for which the IC50 was > 100 µM (inactive). In addition, the IC50 under setting [2] is above 100 µM.
With `Cn1c(=O)n(CC(=O)N2CCC3(CC2)OCCO3)c(=O)c2ccccc21`, the IC50 was > 100 µM (inactive). Under setting [2], this compound had an IC50 above 100 µM.
As for `O=C(Nc1cccc(-c2cn3cccnc3n2)c1)c1ccc2c(c1)OCO2`, the IC50 was > 100 µM (inactive). Under setting [2], this compound gave an IC50 above 100 µM.
Consider `COC(=O)c1cn(CCOc2ccccc2)c2ccccc12`, for which the IC50 is > 100 µM (inactive). Moreover, under setting [2], the IC50 is above 100 µM.
With `CCSc1nnc(-c2ccc(S(=O)(=O)NCc3cccs3)cc2)o1`, the IC50 was > 100 µM (inactive). In addition, the IC50 under setting [2] is above 100 µM.
The corresponding values for `CCOCCCNC(=O)C1CCN(c2cc(C)nc3c(-c4ccc(OC)c(OC)c4)c(C)nn23)CC1` are > 100 µM (inactive) and above 100 µM.
In turn, `CN(C)C(=O)Oc1ccc(OC(=O)c2ccccc2)cc1` showed an IC50 under setting [2] above 100 µM.
Regarding `Cc1ccc(C(=O)NCc2ccco2)cc1S(=O)(=O)Nc1cccc(C)c1C`, the IC50 is > 100 µM (inactive). The same compound came in with an IC50 under setting [2] above 100 µM.
In the case of `C=CCn1c(SC2CCOC2=O)nc2sc(CC)cc2c1=O` (centres undefined), the IC50 is > 100 µM (inactive). This compound came in with an IC50 under setting [2] above 100 µM.
The corresponding values for `O=c1c2ccccc2nc(-c2ccco2)n1-c1nc2ccccc2s1` are > 100 µM (inactive) and above 100 µM.
For `Cc1nc2ccc(NC(=O)Cc3ccsc3)cc2s1`, the IC50 is > 100 µM (inactive). The compound further showed an IC50 under setting [2] above 100 µM.
As for `O=C(Oc1ccc2c(c1)CCC2)N1CCOCC1`, the IC50 is > 100 µM (inactive). Under setting [2], the IC50 is above 100 µM.
As to `CCOC(=O)Cc1csc(NC(=O)CCc2ccc(S(=O)(=O)N3CCOCC3)cc2)n1`, the IC50 was > 100 µM (inactive). The compound also displayed an IC50 under setting [2] above 100 µM.
With `CCOc1ccccc1N1CC(C(=O)N2CCc3ccccc32)CC1=O` (centres undefined), the IC50 was > 100 µM (inactive). This compound came in with an IC50 under setting [2] above 100 µM.
With `CCC(=O)Nc1c2c(nn1-c1ccc(C)cc1C)CSC2`, the IC50 was > 100 µM (inactive). Moreover, the IC50 under setting [2] is above 100 µM.
For `O=C(NCCC1=CCCCC1)c1ccc(=O)oc1`, in that order: > 100 µM (inactive) and above 100 µM.
`Cc1cc(C)cc(NS(=O)(=O)c2ccc3[nH]c(=O)[nH]c3c2)c1`: the IC50 is > 100 µM (inactive). Under setting [2], the half-maximal inhibitory concentration (IC50) was above 100 µM.
With `O=C(Nc1nc(-c2ccc(S(=O)(=O)N3CCCCCC3)cc2)cs1)c1cccs1`, the IC50 was > 100 µM (inactive). Further, the IC50 under setting [2] was above 100 µM.
The corresponding values for `COc1cc2cc(C(c3nnnn3C3CCCCC3)N(C)C3CCCCC3)c(=O)[nH]c2cc1OC` (centres undefined) are > 100 µM (inactive) and above 100 µM.
With `Cc1cc(C)c(NC(=O)CSc2nnc(Cc3cccn3C)n2-c2ccc(F)cc2)c(C)c1`, the IC50 is > 100 µM (inactive). Further, the IC50 under setting [2] is above 100 µM.
For `COc1cccc(-c2nc(N3CCCCC3C)c3ccccc3n2)c1O` (centres undefined), in that order: > 100 µM (inactive) and above 100 µM.
As to `COc1cccc(Oc2cn[nH]c2-c2ccc(OC)cc2O)c1`, the IC50 result is “inactive”. Moreover, the IC50 under setting [1] turned out to be 44.1 µM. The same compound had an IC50 under setting [2] of 40.8 µM.
As for `O=c1/c(=C/c2ccc(CNS(=O)(=O)c3ccccc3)o2)sc2n1CCN=2`, the IC50 was > 100 µM (inactive). Under setting [2], the IC50 was above 100 µM.
The corresponding values for `Cc1csc(NC(=O)NC2(C(F)(F)F)Oc3ccccc3O2)n1` are > 100 µM (inactive) and above 100 µM.
In the case of `O=C(NCc1ccc(F)cc1)c1c(O)c2cccc3c2n(c1=O)CCC3`, the IC50 was > 100 µM (inactive). Besides, the IC50 under setting [2] was above 100 µM.
`Cn1c(/N=C/c2c(O)ccc3ccccc23)nc2ccccc21`: the IC50 is > 100 µM (inactive). Also, the IC50 under setting [2] is above 100 µM.
As for `COC(=O)c1ccccc1NC(=O)CSc1nc(-c2ccco2)cc(C(F)(F)F)n1`, the IC50 was > 100 µM (inactive). The IC50 under setting [2] was above 100 µM.
The corresponding values for `CN1C(=O)c2ccccc2Sc2ccc(C(=O)N3CCC4(CC3)OCCO4)cc21` are > 100 µM (inactive) and above 100 µM.
For `COc1ccccc1-n1cnnc1SCC(=O)c1cc(C)n(Cc2cccs2)c1C`, the IC50 was > 100 µM (inactive). Under setting [2], this compound yielded an IC50 above 100 µM.
Turning to `COc1ccc(N/C=C(\C#N)c2nc3ccccc3n2C)c(OC)c1`, the IC50 is > 100 µM (inactive). For the same compound, under setting [2], the IC50 was above 100 µM.
`CCOC(=O)C1CCCN(C(=O)c2cc3c(C)nc4ccccc4c3o2)C1` (centres undefined): the IC50 was > 100 µM (inactive). Besides, the IC50 under setting [2] was above 100 µM.
For the compound `CCOC(=O)C1=C(C)NC(C)=C(C(=O)OCC)C1C(=O)OCC(=O)N1CCc2ccccc2C1`, the IC50 was > 100 µM (inactive). The compound further showed an IC50 under setting [2] above 100 µM.
With `CCOC(=O)CSc1ccc(-c2nc3cc(C)c(C)cc3[nH]2)cn1`, the IC50 was > 100 µM (inactive). Besides, the IC50 under setting [2] is above 100 µM.
As to `Cc1c(O)c(CN2CCCC2)cc2c1oc(=O)c1ccccc12`, the IC50 was > 100 µM (inactive). Moreover, the IC50 under setting [1] was above 100 µM. Further, the IC50 under setting [2] was above 100 µM.

(Values after PubChem BioAssay AID792 (PCMD, 2007).)
